Data on 7 compounds can be found in ChEMBL document CHEMBL1131546, “Synthesis and pharmacological evaluation of benzofuran-acetamides as "antineophobic" mitochondrial DBI receptor complex ligands” (Bioorg Med Chem Lett, 1998).

Broadly, the EC50 is the concentration needed to bring the measured effect to its halfway point. Low values mean greater potency, high ones weaker potency. By Ki is commonly meant the equilibrium dissociation constant of an inhibitor or competing ligand from its target. Lower therefore signals tighter binding.

Experiment [1] can be described thus: Concentration required to stimulate pregnenolone formation in the mitochondria of C6-2B glioma cells. Type of experiment: functional, Rattus norvegicus.
The nature of experiment [2]: Binding affinity was determined as the ability to displace [3H]4''CD from the (mDRC) mitochondrial DBI receptor complex using primary cultures of glial cells. Also noted: species or system Rattus norvegicus.
The subject of experiment [3] is Rattus norvegicus. In words: Tested for antineophobic activity in rats using elevated maze test upon 57 umol/kg peroral administration, expressed as number of entries into the open arms after 45 min of administration. It counts as functional.
Experiment [4] relates to Rattus norvegicus. In words: Tested for antineophobic activity in rats using elevated maze test upon 57 umol/kg peroral administration, expressed as percent of time spent into open arms after 45 min of administration. Type of experiment: functional.
For experiment [5], the system named is Rattus norvegicus. Description: Tested for antineophobic activity in rats using elevated maze test upon 70 umol/kg peroral administration, expressed as number of entries into the open arms after 45 min of administration. Type of experiment: functional.
For experiment [6], the system named is Rattus norvegicus. In words: Tested for antineophobic activity in rats using elevated maze test upon 70 umol/kg peroral administration, expressed as percent of time spent into open arms after 45 min of administration. It counts as functional.
Experiment [7] concerns Rattus norvegicus. In words: Tested for antineophobic activity in rats using elevated maze test upon 59 umol/kg peroral administration, expressed as number of entries into the open arms after 45 min of administration. It counts as functional.
The subject of experiment [8] is Rattus norvegicus. Description: Tested for antineophobic activity in rats using elevated maze test upon 59 umol/kg po administration, expressed as percent of time spent into open arms after 45 min of administration. It counts as functional.
Experiment [9] relates to Rattus norvegicus. Description: Tested for antineophobic activity in rats using elevated maze test upon 53 umol/kg peroral administration, expressed as number of entries into the open arms after 45 min of administration. Type of experiment: functional.
Experiment [10] has as its system Rattus norvegicus. Description: Tested for antineophobic activity in rats using elevated maze test upon 53 umol/kg peroral administration, expressed as percent of time spent into open arms after 45 min of administration. Type of experiment: functional.

As for `CCCCCCN(CCCCCC)C(=O)Cc1c(-c2ccc(F)cc2)[nH]c2ccccc12`, the EC50 in experiment [1] amounted to 3 nM. Moreover, the inhibitory constant (Ki) in experiment [2] was 4.4 nM. The “No. of openarm entries” value with Rattus norvegicus [3] amounted to 2.1. Also, in the experiment with Rattus norvegicus [4], the Time was 4.5%.
In turn, `CCCCCCN(CCCCCC)C(=O)Cc1c(-c2ccccc2)oc2ccc(Cl)cc12` registered an inhibition constant Ki in experiment [2] of 32 nM. Further, the “No. of openarm entries” value in the experiment on Rattus norvegicus [5] is listed as 2.1. This compound showed a Time with Rattus norvegicus [6] of 4.7%.
On to `CCCCCCN(CCCCCC)C(=O)Cc1c(-c2ccc(N)cc2)oc2ccccc12`, for which the affinity in experiment [2], expressed as Ki, was 35 nM.
The compound `CCCCCCN(CCCCCC)C(=O)Cc1c(-c2ccc(I)cc2)oc2ccccc12` displayed a Ki in experiment [2] of 80 nM.
In turn, `CCCCCCN(CCCCCC)C(=O)Cc1c(-c2ccc(F)cc2)oc2ccccc12` had a Ki in [2] of 8 nM. For the same compound, in the experiment with Rattus norvegicus [3], the “No. of openarm entries” value is given as 2.1. Moreover, the Time in the experiment on Rattus norvegicus [4] is 5.1%.
Regarding `CCCCCCN(CCCCCC)C(=O)Cc1c(-c2ccccc2)oc2ccccc12`, the inhibition constant Ki in experiment [2] is 14 nM. In addition, the “No. of openarm entries” value in the experiment on Rattus norvegicus [7] amounted to 2.6. In the experiment on Rattus norvegicus [8], the Time is reported as 4.5%.
In experiment [2], `CCCCCCN(CCCCCC)C(=O)Cc1c(-c2ccc(F)cc2)oc2ccc(Cl)cc12` had an inhibition constant (Ki) of 32 nM. Also, the “No. of openarm entries” value in the experiment with Rattus norvegicus [9] was found to be 2.3. Further, the Time with Rattus norvegicus [10] came to 4.7%.
